Results as given in paper PMC11062922 (Nature Chemical Biology, 2023).

Tests used:
[1] = target: ABL1 (Homo sapiens, UniProt P00519); assay: Kinobeads two-dose competition binding: ABL1; details: sheet CATDS matrix 2; Gene Name ABL1
[2] = target: T1, ACOX1 (Homo sapiens, UniProt Q15067); assay: Kinobeads two-dose competition binding: ACOX1; details: sheet CATDS matrix 2; Gene Name ACOX1;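 note: competition of compounds with immobilized broad-spectrum kinase inhibitor beads in cell lysate at 100 and 1,000 nM, 45 min at 4 °C, bead-bound protein quantified by label-free MS versus DMSO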
T1 construct: endogenous in cells
T1 sequence (Q15067 1-660): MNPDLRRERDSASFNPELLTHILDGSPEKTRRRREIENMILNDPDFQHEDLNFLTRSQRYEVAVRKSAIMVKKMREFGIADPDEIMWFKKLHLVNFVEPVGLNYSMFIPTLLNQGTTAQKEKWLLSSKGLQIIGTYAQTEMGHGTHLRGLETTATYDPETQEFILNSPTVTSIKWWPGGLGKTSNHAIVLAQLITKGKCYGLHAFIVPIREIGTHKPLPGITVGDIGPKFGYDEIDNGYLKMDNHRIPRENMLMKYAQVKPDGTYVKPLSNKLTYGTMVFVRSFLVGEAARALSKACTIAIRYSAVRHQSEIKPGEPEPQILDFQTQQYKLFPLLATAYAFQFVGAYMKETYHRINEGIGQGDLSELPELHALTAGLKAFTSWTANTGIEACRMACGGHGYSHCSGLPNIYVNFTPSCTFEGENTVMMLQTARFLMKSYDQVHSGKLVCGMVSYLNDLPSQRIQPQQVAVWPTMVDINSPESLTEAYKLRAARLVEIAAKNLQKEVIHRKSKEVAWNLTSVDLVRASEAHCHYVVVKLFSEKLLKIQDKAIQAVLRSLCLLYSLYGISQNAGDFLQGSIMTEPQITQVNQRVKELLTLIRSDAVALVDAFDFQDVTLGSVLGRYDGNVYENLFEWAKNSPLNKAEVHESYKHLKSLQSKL

[3] = target: T2, ACAD11 (Homo sapiens, UniProt Q709F0); assay: Kinobeads two-dose competition binding: ACAD11; details: sheet CATDS matrix 2; Gene Name ACAD11
T2 construct: endogenous in cells
T2 sequence (Q709F0 1-780): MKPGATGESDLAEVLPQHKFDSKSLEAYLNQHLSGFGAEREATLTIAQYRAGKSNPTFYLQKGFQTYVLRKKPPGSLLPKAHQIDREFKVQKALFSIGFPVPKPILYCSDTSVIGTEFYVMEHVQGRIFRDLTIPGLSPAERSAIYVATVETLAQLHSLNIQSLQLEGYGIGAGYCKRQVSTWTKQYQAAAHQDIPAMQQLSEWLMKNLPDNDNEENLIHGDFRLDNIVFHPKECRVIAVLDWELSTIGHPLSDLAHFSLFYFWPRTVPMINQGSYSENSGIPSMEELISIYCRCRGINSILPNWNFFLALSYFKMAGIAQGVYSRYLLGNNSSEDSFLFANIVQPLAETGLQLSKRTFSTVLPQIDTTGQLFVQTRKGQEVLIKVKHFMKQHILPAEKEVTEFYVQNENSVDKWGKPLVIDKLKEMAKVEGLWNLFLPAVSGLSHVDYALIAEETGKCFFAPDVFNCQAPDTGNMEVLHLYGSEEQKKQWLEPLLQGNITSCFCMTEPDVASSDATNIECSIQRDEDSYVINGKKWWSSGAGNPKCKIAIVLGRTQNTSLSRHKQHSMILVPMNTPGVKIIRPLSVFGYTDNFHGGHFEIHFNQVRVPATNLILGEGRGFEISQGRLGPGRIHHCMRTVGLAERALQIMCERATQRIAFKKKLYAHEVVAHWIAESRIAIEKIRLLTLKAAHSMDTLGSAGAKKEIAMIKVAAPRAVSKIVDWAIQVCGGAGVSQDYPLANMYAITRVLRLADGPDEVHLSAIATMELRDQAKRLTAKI

[4] = target: T3, AAK1 (Homo sapiens, UniProt Q2M2I8); assay: Kinobeads two-dose competition binding: AAK1; details: for CATDS: sheet CATDS matrix 2, Gene Name AAK1; for potency estimated from few doses: sheet "Kinobeads Drugmatrix - all", unit inferred, same values below 1000 recur in sheet "nanomolar", read-out: Kinobeads Drugmatrix - all: apparent Kd, AAK1;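 for all read-outs here: kinobeads competition pulldown from cell lysate, compound preincubated 45 min at 4 °C, bead-bound protein measured by label-free mass spectrometry against DMSO vehicle control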
T3 construct: to maximize the representation of endogenous proteins; endogenous in cells
T3 sequence (Q2M2I8 whole entry): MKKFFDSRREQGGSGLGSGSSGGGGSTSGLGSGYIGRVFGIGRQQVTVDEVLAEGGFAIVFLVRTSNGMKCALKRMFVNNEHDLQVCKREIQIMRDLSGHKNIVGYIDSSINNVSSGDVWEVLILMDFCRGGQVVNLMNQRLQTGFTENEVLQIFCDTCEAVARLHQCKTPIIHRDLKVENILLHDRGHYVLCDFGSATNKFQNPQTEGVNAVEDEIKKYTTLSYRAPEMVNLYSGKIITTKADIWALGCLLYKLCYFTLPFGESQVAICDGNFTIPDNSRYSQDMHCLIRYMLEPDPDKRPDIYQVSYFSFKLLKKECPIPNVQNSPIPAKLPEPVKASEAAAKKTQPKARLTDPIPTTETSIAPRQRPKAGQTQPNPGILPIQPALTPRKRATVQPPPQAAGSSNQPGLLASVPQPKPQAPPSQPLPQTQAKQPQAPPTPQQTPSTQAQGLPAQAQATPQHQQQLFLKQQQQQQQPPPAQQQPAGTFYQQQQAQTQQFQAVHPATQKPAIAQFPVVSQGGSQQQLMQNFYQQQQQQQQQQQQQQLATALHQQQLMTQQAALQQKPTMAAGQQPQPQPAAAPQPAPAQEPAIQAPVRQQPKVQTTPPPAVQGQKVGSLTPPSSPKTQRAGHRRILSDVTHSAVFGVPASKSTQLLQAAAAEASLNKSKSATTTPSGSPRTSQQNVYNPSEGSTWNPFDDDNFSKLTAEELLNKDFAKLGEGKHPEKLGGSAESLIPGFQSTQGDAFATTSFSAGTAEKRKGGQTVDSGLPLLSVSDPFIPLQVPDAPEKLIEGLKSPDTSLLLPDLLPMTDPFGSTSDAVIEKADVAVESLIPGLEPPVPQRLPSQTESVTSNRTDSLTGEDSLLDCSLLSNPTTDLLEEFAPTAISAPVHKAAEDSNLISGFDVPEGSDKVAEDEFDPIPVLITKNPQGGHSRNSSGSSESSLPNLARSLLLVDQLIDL

[5] = target: T4, ABL2 (Homo sapiens, UniProt P42684); assay: Kinobeads two-dose competition binding: ABL2; details: sheet CATDS matrix 2; Gene Name ABL2
T4 construct: endogenous in cells
T4 sequence (P42684 whole entry): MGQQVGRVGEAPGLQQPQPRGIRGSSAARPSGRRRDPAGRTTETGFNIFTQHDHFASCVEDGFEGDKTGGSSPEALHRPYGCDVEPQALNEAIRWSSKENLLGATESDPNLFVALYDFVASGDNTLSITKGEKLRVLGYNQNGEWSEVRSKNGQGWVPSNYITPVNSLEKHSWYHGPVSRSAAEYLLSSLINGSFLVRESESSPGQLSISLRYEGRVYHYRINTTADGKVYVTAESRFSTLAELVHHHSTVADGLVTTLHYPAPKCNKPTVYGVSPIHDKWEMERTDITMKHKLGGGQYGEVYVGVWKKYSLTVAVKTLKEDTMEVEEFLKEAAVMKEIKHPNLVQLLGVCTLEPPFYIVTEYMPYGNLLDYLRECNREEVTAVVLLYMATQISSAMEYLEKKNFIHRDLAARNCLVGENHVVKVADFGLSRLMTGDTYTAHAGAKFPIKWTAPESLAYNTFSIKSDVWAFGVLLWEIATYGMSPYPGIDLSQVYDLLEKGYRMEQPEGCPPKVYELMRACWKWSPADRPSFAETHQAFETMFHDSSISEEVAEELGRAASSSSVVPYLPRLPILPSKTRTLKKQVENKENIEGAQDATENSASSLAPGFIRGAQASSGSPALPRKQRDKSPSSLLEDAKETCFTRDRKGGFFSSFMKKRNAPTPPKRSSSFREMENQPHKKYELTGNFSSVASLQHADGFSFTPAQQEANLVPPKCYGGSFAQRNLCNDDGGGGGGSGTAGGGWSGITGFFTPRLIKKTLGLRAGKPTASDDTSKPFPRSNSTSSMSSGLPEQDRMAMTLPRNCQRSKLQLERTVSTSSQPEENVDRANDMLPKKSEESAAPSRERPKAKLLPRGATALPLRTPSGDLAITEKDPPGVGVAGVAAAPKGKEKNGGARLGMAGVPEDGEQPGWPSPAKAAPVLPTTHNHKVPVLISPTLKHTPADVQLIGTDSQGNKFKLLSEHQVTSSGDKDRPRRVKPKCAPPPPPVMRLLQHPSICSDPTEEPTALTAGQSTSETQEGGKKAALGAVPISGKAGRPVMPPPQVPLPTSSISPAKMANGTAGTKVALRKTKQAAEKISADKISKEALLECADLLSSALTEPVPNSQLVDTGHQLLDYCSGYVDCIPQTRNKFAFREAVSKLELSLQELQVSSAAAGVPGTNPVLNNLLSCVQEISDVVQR

Sequence of ABL1 (P00519 28-1130 limits assumed): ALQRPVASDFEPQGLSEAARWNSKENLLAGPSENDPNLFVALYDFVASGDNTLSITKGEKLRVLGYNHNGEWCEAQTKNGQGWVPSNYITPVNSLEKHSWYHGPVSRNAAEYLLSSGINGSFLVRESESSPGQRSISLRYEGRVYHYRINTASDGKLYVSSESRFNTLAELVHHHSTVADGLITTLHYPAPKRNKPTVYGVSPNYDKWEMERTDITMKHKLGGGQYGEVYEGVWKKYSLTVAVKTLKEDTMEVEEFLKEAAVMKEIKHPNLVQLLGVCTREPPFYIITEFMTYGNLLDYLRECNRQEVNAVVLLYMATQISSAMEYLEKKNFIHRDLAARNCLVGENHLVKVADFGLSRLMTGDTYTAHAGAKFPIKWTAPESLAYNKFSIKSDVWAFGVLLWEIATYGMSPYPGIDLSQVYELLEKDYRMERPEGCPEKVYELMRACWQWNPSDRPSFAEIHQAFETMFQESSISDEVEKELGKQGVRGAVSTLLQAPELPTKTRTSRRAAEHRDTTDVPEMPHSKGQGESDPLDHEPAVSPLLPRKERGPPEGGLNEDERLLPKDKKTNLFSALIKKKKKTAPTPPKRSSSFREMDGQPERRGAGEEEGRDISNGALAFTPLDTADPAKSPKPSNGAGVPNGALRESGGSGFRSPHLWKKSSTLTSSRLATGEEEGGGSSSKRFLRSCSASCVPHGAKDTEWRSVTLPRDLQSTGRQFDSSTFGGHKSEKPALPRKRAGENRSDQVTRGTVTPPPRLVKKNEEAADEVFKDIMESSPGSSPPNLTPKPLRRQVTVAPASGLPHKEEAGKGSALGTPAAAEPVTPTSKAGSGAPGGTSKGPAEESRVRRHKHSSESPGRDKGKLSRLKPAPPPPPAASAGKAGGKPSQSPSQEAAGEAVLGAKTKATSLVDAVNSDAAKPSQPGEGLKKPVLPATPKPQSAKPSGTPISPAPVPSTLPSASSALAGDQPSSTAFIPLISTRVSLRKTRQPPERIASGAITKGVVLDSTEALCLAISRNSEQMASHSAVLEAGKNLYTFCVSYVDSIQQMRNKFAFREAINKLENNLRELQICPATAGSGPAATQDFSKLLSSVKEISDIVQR

Row | SMILES | CATDS [1] | CATDS [2] | CATDS [3] | CATDS [4] | CATDS [5] | potency estimated from few doses [4]
1 | COc1cc2ncn(-c3cc(OCC4CCCO4)c(C(N)=O)s3)c2cc1OC (centres unmarked) [GSK204607A] | 0 | 0 | 0 | 0 | 0 | 
2 | COc1ccc(Nc2nccc(N3CCC(NC(=O)c4cccc(C#N)c4)C3)n2)cc1 (centres unmarked) [GSK1379730A] | 0 | 0 | 0 | 0 | 0 | 
3 | CNC(=O)c1ncccc1Nc1nc(Nc2cc3c(cc2OC)CCCN3C(=O)CN(C)C)nc2[nH]ccc12 [GSK2220400A] | 0 | 0 | 0 | 0 | 0 | 
4 | CSc1nn2c(=O)cc(N3CCOCC3)nc2n1Cc1cccc(C(F)(F)F)c1C [GSK2363608B] | 0 | 0 | 0 | 0 | 0 | 
5 | N#Cc1ccc(CCNc2nccc(-c3cccc(CN4CCNCC4)c3)n2)cc1 [GSK2137462A] | 0 | 0 | 0 | 0 | 0 | 
6 | CC1=C(C(=O)Nc2ccc3[nH]ncc3c2)C(c2ccc(F)cc2)NC(=O)N1 (centres unmarked) [GSK180736A] | 0 | 0 | 0 | 0 | 0 | 
7 | CNC(=O)c1c(F)cccc1Nc1nc(Nc2cc3c(cc2OC)CCN3C(=O)CN(C)C)nc2[nH]ccc12 [GSK1838705] | 0 | 0 | 0 | 0 | 0 | 
8 | Cc1c(Cn2ccn3c(=O)nc(N4CCOCC4)cc23)cccc1C(F)(F)F [GSK2336394A] | 0 | 0 | 0 | 0 | 0 | 
9 | CCn1c(-c2nonc2N)nc2c(C#CC(C)(C)O)nc(O[C@@H](CN)c3ccccc3)cc21 [GSK1007102B] | 0 | 0 | 0 | 0.04112 | 0 | 67.3 nM
10 | O=C(Nc1ccccc1F)NC1CCN(c2ccnc(Nc3ccc(F)cc3)n2)C1 (centres unmarked) [GSK1379722A] | 0 | 0 | 0 | 0 | 0 | 
11 | O=c1cc(N2CCOCC2)nc2n(Cc3cccc(F)c3)ccn12 [GSK2297430A] | 0 | 0 | 0 | 0 | 0 | 
12 | COc1cc(N2CCN(C(C)C)CC2)ccc1Nc1nc(Nc2ccc(F)cc2C(N)=O)c2cc[nH]c2n1 [GSK1220512A] | 0 | 0 | 0 | 0 | 0 | 
13 | COc1cc2c(cc1Nc1nc(N3CCc4ccccc43)c3cc[nH]c3n1)N(C(=O)CN(C)C)CC2 [GSK2186269A] | 0 | 0 | 0 | 0 | 0 | 
14 | COC(=O)c1cccc(NC(=O)NC2CCN(c3ccnc(Nc4cc(OC)c(OC)c(OC)c4)n3)C2)c1 (centres unmarked) [GSK1379767A] | 0 | 0 | 0 | 0 | 0 | > 1000 nM
15 | Nc1nccc(-c2ccc3c(N)n[nH]c3c2)n1 [GSK1034945A] | 0 | 0 | 0 | 0.08249 | 0 | 194 nM
16 | Cc1ccc(NC(=O)Nc2cc(C(C)(C)C)nn2-c2ccccc2)cc1 [GSK1014915A] | 0 | 0 | 0 | 0 | 0 | 
17 | NCCC(NC(=O)c1cc(Br)c(-c2ccnc3[nH]ccc23)s1)c1ccccc1 (centres unmarked) [GSK1307810A] | 0 | 0 | 0 | 0 | 0 | 

Row | SMILES | CATDS [1] | CATDS [2] | CATDS [3] | CATDS [4] | CATDS [5] | potency estimated from few doses [4]
18 | NCC(NC(=O)c1cc(-c2ccnc3[nH]ccc23)cs1)c1ccccc1 (centres unmarked) [GSK1229959A] | 0 | 0 | 0 | 0.03638 | 0 | 79.6 nM
19 | CC(C)N1CCN(Cc2cnc(-c3cc(-c4cccc5[nH]ccc45)cc4[nH]ncc34)o2)CC1 [GSK2269557] | 0 | 0 | 0 | 0 | 0 | 
20 | C[C@@H](Oc1cc(-c2cnn(C3CCNCC3)c2)cnc1N)c1c(Cl)ccc(F)c1Cl [Crizotinib, reference compound] |  | 0 | 0 | 0 | 0.04718 | 
21 | CO[C@@H](C(=O)N1Cc2n[nH]c(NC(=O)c3ccc(N4CCN(C)CC4)cc3)c2C1)c1ccccc1 [Danusertib, reference compound] |  | 0 | 0 | 0 | 0.05811 | 
22 | COc1cc2ncnc(Nc3ccc(F)c(Cl)c3)c2cc1OCCCN1CCOCC1 [Gefitinib, reference compound] |  |  |  | 0 |  | 
23 | COc1cccc(NC(=O)NC2CCN(c3ccnc(Nc4cc(OC)c(OC)c(OC)c4)n3)C2)c1 (centres unmarked) [GSK1379763A] |  |  |  |  |  | > 1000 nM
24 | COc1cc2ncnc(Nc3cccc(Br)c3)c2cc1OC [GI230329A] |  | 0 | 0 | 0 | 0 | 
25 | C#Cc1cccc(Nc2ncnc3cc(OCCOC)c(OCCOC)cc23)c1 [Erlotinib, reference compound] | 0 |  |  | 0 |  | 
26 | CC(C)(C)c1nc(-c2cccc(NS(=O)(=O)c3c(F)cccc3F)c2F)c(-c2ccnc(N)n2)s1 [Dabrafenib, reference compound] |  | 0 | 0 | 0 | 0.02813 | 
27 | CNC(=O)c1ccccc1Sc1ccc2c(/C=C/c3ccccn3)n[nH]c2c1 [Axitinib, reference compound] |  | 0 | 0 | 0 | 0 | 
28 | O=c1[nH]ccc2nc(N[C@@H]3CCCNC3)nc(Nc3ccc(S(=O)(=O)N4CCOCC4)cc3)c12 [GSK2177277A] | 0 | 0 |  | 0.01814 | 0 | 64.1 nM
29 | O=C(Nc1c[nH]nc1-c1nc2ccc(CN3CCOCC3)cc2[nH]1)NC1CC1 [AT-9283, reference compound] |  | 0 | 0 | 0.0448 | 0 | 
30 | COc1cc(Nc2c(C#N)cnc3cc(OCCCN4CCN(C)CC4)c(OC)cc23)c(Cl)cc1Cl [Bosutinib, reference compound] |  | 0 | 0 |  |  | 
31 | Cc1nc(Nc2ncc(C(=O)Nc3c(C)cccc3Cl)s2)cc(N2CCN(CCO)CC2)n1 [Dasatinib, reference compound] |  | 0 | 0 | 0 | 0.1826 | 
32 | COc1ccc(CNC(=O)NC2CCN(c3ccnc(Nc4cc(OC)c(OC)c(OC)c4)n3)C2)cc1 (centres unmarked) [GSK1379748A] |  |  |  |  |  | > 1000 nM
33 | CNc1nc(-c2ccc3c(N)n[nH]c3c2)cc(N2C[C@@H](C(=O)NC3CCCCC3)CC[C@H]2C)n1 [GSK2334470] |  | 0 | 0 | 0 | 0 | 
